# Source: patent US5932548A, “Lysine containing peptides for treatment of heart disease” (priority 1998, dated 1999)
# Non-standard residues stand in square brackets, D forms with d. Residues, ends and D or L forms follow the SMILES beside them. dTrp(2-Me) = Cc1[nH]c2ccccc2c1C[C@@H](N)C(=O)O
# How the values were obtained:
# isolated rat hearts = test: coronary perfusion pressure (CPP) in isolated rat hearts; conditions: versus saline treatment (no peptide)
# Method: (§1) In the examples that follow, data is presented for the most preferred lysine containing peptides of the invention. The GH releasing effect was measured in rats according to the method described by R. Deghenghi et al., Life Sci. 54: 1321-1328 (1994). The cardiac protection of the instant peptides has been measured essentially as described in the above cited publication by V. De Gennaro Colonna et al., Europ. J. Pharmacol. 334:201-207 (1997).
# The effects on coronary perfusion pressure ("CPP") in isolated rat hearts have been measured using Hexarelin (His-D-Mrp-Ala-Trp-D-Phe-Lys-NH2) as reference compound and compared to that for the GH antagonist His-D-Mrp-D-Lys-Trp-D-Phe-Lys-NH2. An increase of CPP over a saline treatment (i.e., no peptide) of 110±10% was found for Hexarelin, but an increase of 160±25% was found for the antagonist.
# [1] = test system: growth hormone deficient rats; conditions: De Gennaro Colonna et al. 1997; cited from earlier work
# rats = test: GH releasing effect in rats; assay type: in vivo, rat
# Method: as §1
Compound,increase of CPP over a saline treatment (isolated rat hearts),effect on cardiac dysfunction [1],GH liberation (rats)
"Cc1[nH]c2ccccc2c1C[C@@H](NC(=O)[C@@H](N)Cc1cnc[nH]1)C(=O)N[C@@H](C)C(=O)N[C@@H](Cc1c[nH]c2ccccc12)C(=O)N[C@H](Cc1ccccc1)C(=O)N[C@@H](CCCCN)C(N)=O [Hexarelin, His-D-Mrp-Ala-Trp-D-Phe-Lys-NH2] (H-H[dTrp(2-Me)]AW[dF]K-NH2)",110±10%,reverse the worsening of cardiac dysfunction,–
His-D-Mrp-D-Lys-Trp-D-Phe-Lys-NH2,160±25%,–,does not liberate GH
